# Data taken from patent US7951824B2, “4-aryl-pyridine-2-carboxyamide derivatives” (Hoffman-La Roche Inc., priority 2006, dated 2011).
# Target: T1, human mGlu 5a receptor (Homo sapiens, UniProt P41594)
# T1 construct: expressed in transfected cells; host or cells: EBNA cells (transient transfection), membrane homogenates
# Test: [3H]MPEP competition binding on membranes of EBNA cells transfected with human mGlu 5a receptor
# Details: competition with [3H]MPEP (2 nM), 1 h at 4° C., EBNA cell membranes
# Description: The pharmacological activity of the compounds was tested using the following method: For binding experiments, cDNA encoding human mGlu 5a receptor was transiently transfected into EBNA cells using a procedure described by Schlaeger and Christensen [Cytotechnology 15:1-13 (1998)]. Cell membrane homogenates were stored at −80° C. until the day of assay where upon they were thawed and resuspended and polytronised in 15 mM Tris-HCl, 120 mM NaCl, 100 mM KCl, 25 mM CaCl2, 25 mM MgCl2 binding buffer at pH 7.4 to a final assay concentration of 20 μg protein/well.
# Saturation isotherms were determined by addition of twelve [^3H] MPEP concentrations (0.04-100 nM) to these membranes (in a total volume of 200 μd) for 1 h at 4° C. Competition experiments were performed with a fixed concentration of [^3H]MPEP (2 nM) and IC50 values of test compounds evaluated using 11 concentrations (0.3-10,000 nM). Incubations were performed for 1 h at 4° C.
# At the end of the incubation, membranes were filtered onto unifilter (96-well white microplate with bonded GF/C filter preincubated 1 h in 0.1% PEI in wash buffer, Packard Bio-Science, Meriden, Conn.) with a Filtermate 96 harvester (Packard BioScience) and washed 3 times with cold 50 mM Tris-HCl, pH 7.4 buffer. Nonspecific binding was measured in the presence of 10 μM MPEP. The radioactivity on the filter was counted (3 min) on a Packard Top-count microplate scintillation counter with quenching correction after addition of 45 μl of microscint 40 (Canberra Packard S. A., Zürich, Switzerland) and shaking for 20 min.
# For binding experiments the Ki values of the compounds tested are given. The Ki value is defined by the following formula: KiIC50/[1+L/Kd] in which the IC50 values are those concentrations of the compounds tested which cause 50% inhibition of the competing radioligand ([^3H]MPEP). L is the concentration of radioligand used in the binding experiment and the Kd value of the radioligand is empirically determined for each batch of membranes prepared.
# T1 sequence (P41594 21-1180 isoform P41594-2 limits assumed): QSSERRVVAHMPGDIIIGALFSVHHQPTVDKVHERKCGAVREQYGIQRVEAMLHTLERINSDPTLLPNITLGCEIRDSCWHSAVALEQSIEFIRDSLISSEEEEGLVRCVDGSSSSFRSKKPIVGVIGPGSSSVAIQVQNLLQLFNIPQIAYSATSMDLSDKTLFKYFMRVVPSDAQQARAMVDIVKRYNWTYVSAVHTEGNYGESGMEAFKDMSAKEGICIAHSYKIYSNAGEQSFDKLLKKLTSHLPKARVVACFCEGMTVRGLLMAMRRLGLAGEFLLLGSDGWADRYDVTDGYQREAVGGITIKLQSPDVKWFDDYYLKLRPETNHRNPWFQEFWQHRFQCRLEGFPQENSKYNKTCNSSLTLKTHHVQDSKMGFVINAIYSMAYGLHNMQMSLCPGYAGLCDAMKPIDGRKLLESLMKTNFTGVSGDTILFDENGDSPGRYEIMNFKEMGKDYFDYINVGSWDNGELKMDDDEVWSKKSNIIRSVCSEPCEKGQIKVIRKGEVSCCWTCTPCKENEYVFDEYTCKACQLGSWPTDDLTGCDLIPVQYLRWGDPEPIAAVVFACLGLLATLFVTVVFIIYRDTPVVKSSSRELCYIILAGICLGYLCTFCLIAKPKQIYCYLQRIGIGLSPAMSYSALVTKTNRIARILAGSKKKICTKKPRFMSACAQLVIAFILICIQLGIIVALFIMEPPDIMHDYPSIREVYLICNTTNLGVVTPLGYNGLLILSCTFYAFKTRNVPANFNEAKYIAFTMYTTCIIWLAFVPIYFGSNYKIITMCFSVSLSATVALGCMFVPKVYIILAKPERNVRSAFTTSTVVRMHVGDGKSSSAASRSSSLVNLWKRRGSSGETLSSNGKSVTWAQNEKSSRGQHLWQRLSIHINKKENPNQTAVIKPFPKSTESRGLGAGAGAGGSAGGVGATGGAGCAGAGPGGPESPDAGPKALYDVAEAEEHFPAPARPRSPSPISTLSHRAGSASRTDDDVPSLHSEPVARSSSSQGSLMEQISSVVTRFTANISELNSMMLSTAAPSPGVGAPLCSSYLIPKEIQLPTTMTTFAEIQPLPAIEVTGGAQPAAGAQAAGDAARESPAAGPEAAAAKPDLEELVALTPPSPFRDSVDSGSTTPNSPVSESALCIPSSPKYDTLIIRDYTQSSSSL
row,Compound,Ki [nM]
1,"Cc1cc(-c2cc(Cl)cc(Cl)c2)cc(C(=O)Nc2ccn(C)n2)n1 [Example 23, 4-(3,5-Dichloro-phenyl)-6-methyl-pyridine-2-carboxylic acid (1-methyl-1H-pyrazol-3-yl)-amide]",4
2,"Cc1cc(-c2ccc(F)cc2)cc(C(=O)Nc2cccc(Cl)c2)n1 [Example 26, 4-(4-Fluoro-phenyl)-6-methyl-pyridine-2-carboxylic acid (3-chloro-phenyl)-amide]",287
3,"Cc1cc(-c2ccc(F)cc2)cc(C(=O)Nc2nc(C)cs2)n1 [Example 27, 4-(4-Fluoro-phenyl)-6-methyl-pyridine-2-carboxylic acid (4-methyl-thiazol-2-yl)-amide]",55
4,"Cc1cc(NC(=O)c2cc(-c3ccc(F)cc3)cc(C)n2)ccn1 [Example 28, 4-(4-Fluoro-phenyl)-6-methyl-pyridine-2-carboxylic acid (2-methyl-pyridin-4-yl)-amide]",411
5,"Cc1cc(-c2ccc(F)cc2)cc(C(=O)Nc2ccn(C)n2)n1 [Example 29, 4-(4-Fluoro-phenyl)-6-methyl-pyridine-2-carboxylic acid (1-methyl-1H-pyrazol-3-yl)-amide]",250
6,"Cc1cc(-c2ccc(F)cc2)cc(C(=O)Nc2ccc(F)cn2)n1 [Example 30, 4-(4-Fluoro-phenyl)-6-methyl-pyridine-2-carboxylic acid (5-fluoro-pyridin-2-yl)-amide]",280
7,"Cc1cc(-c2ccc(F)cc2)cc(C(=O)Nc2ccnc(Cl)c2)n1 [Example 31, 4-(4-Fluoro-phenyl)-6-methyl-pyridine-2-carboxylic acid (2-chloro-pyridin-4-yl)-amide]",620
8,"Cc1cc(-c2ccc(F)cc2)cc(C(=O)Nc2ccnc(C)n2)n1 [Example 32, 4-(4-Fluoro-phenyl)-6-methyl-pyridine-2-carboxylic acid (2-methyl-pyrimidin-4-yl)-amide]",501
9,"Cc1csc(NC(=O)c2cc(-c3cc(F)cc(F)c3)nc(C)n2)n1 [Example 33, 6-(3,5-Difluoro-phenyl)-2-methyl-pyrimidine-4-carboxylic acid (4-methyl-thiazol-2-yl)-amide]",14
10,"Cc1nc(C(=O)Nc2csc(C)n2)cc(-c2cc(F)cc(F)c2)n1 [Example 34, 6-(3,5-Difluoro-phenyl)-2-methyl-pyrimidine-4-carboxylic acid (2-methyl-thiazol-4-yl)-amide]",36
11,"Cc1nc(C(=O)Nc2ccn(C)n2)cc(-c2cc(F)cc(F)c2)n1 [Example 35, 6-(3,5-Difluoro-phenyl)-2-methyl-pyrimidine-4-carboxylic acid (1-methyl-1H-pyrazol-3-yl)-amide]",51
12,"Cc1nc(C(=O)Nc2ccnc(Cl)c2)cc(-c2cc(F)cc(F)c2)n1 [Example 36, 6-(3,5-Difluoro-phenyl)-2-methyl-pyrimidine-4-carboxylic acid (2-chloro-pyridin-4-yl)-amide]",113
13,"Cc1cc(NC(=O)c2cc(-c3cc(F)cc(F)c3)nc(C)n2)ccn1 [Example 37, 6-(3,5-Difluoro-phenyl)-2-methyl-pyrimidine-4-carboxylic acid (2-methyl-pyridin-4-yl)-amide]",90
14,"COc1cncc(-c2cc(C)nc(C(=O)Nc3ccn(C)n3)c2)c1 [Example 50, 5-Methoxy-6′-methyl-[3,4′]bipyridinyl-2′-carboxylic acid (1-methyl-1H-pyrazol-3-yl)-amide]",213
15,"COc1cncc(-c2cc(C)nc(C(=O)Nc3csc(C)n3)c2)c1 [Example 56, 5-Methoxy-6′-methyl-[3,4′]bipyridinyl-2′-carboxylic acid (2-methyl-thiazol-4-yl)-amide]",29
16,"Cc1cc(-c2cc(F)cc(F)c2)cc(C(=O)Nc2ccnc(C)n2)n1 [Example 64, 4-(3,5-Difluorophenyl)-6-methyl-pyridine-2-carboxylic acid (2-methyl-pyrimidin-4-yl)-amide]",8
17,"Cc1cc(-c2cncc(F)c2)cc(C(=O)Nc2ccnc(Cl)c2)n1 [Example 67, 5-Fluoro-6′-methyl-[3,4′]bipyridinyl-2′-carboxylic acid (2-chloro-pyridin-4-yl)-amide]",37

row,Compound,Ki [nM]
1,"Cc1cc(-c2cc(F)cc(F)c2)cc(C(=O)Nc2ncc(C)s2)n1 [Example 86, 4-(3,5-Difluorophenyl)-6-methyl-pyridine-2-carboxylic acid (5-methyl-thiazol-2-yl)-amide]",929
2,"Cc1cccc(NC(=O)c2cc(-c3cccnc3)cc(C)n2)n1 [Example 87, 6′-Methyl-[3,4′]bipyridinyl-2′-carboxylic acid (6-methyl-pyridin-2-yl)-amide]",20
3,"Cc1cc(-c2cccnc2)cc(C(=O)Nc2cccc(C#N)c2)n1 [Example 95, 6′-Methyl-[3,4′]bipyridinyl-2′-carboxylic acid (3-cyanophenyl)-amide]",411
4,"Cc1cc(-c2cc(C)nn2C)c(C)c(C(=O)Nc2csc(C)n2)n1 [Example 109, 4-(2,5-Dimethyl-2H-pyrazol-3-yl)-3,6-dimethyl-pyridine-2-carboxylic acid (2-methyl-thiazol-4-yl)-amide]",127
5,"Cc1cc(-c2ccc(F)cc2)c(C)c(C(=O)Nc2ccn(C)n2)n1 [Example 118, 4-(4-Fluoro-phenyl)-3,6-dimethyl-pyridine-2-carboxylic acid (1-methyl-1H-pyrazol-3-yl)-amide]",714
6,"Cc1cc(-c2cncc(C(F)(F)F)c2)cc(C(=O)Nc2nc(C)cs2)n1 [Example 131, 6′-Methyl-5-trifluoromethyl-[3,4′]bipyridinyl-2′-carboxylic acid (4-methyl-thiazol-2-yl)-amide]",196
7,"Cc1cc(NC(=O)c2cc(-c3ccnc(C#N)c3)cc(C)n2)ccn1 [Example 142, 2′-Cyano-6-methyl-[4,4′]bipyridinyl-2-carboxylic acid (2-methyl-pyridin-4-yl)-amide]",182
8,"Cc1cc(-c2ccnc(Cl)c2)cc(C(=O)Nc2ccn(C)n2)n1 [Example 153, 2′-Chloro-6-methyl-[4,4′]bipyridinyl-2-carboxylic acid (1-methyl-1H-pyrazol-3-yl)-amide]",59
9,"Cc1cc(-c2cc(F)cc(F)c2)cc(C(=O)Nc2nc(CC#N)cs2)n1 [Example 163, 4-(3,5-Difluorophenyl)-6-methyl-pyridine-2-carboxylic acid (4-cyanomethyl-thiazol-2-yl)-amide]",20
10,"Cc1cc(-c2cc(F)cc(F)c2)cc(C(=O)Nc2nccc(Cl)n2)n1 [Example 167, 4-(3,5-Difluorophenyl)-6-methyl-pyridine-2-carboxylic acid (4-chloro-pyrimidin-2-yl)-amide]",79
11,"Cc1cc(-c2cc(F)cc(F)c2)cc(C(=O)Nc2ccnc(C#N)c2)n1 [Example 169, 4-(3,5-Difluorophenyl)-6-methyl-pyridine-2-carboxylic acid (2-cyano-pyridin-4-yl)-amide]",30
12,"CCOC(=O)Cn1ccc(NC(=O)c2cc(-c3cc(F)cc(F)c3)cc(C)n2)n1 [Example 170, (3-{[4-(3,5-Difluorophenyl)-6-methyl-pyridine-2-carbonyl]-amino}-pyrazol-1-yl)-acetic acid ethyl ester]",576
13,"Cc1cc(-c2cncc(F)c2)cc(C(=O)Nc2ccc(Cl)cn2)n1 [Example 173, 5-Fluoro-6′-methyl-[3,4′]bipyridinyl-2′-carboxylic acid (5-chloro-pyridin-2-yl)-amide]",33
14,"Cc1cc(-c2cncc(F)c2)cc(C(=O)Nc2nc(C(F)F)cs2)n1 [Example 174, 5-Fluoro-6′-methyl-[3,4′]bipyridinyl-2′-carboxylic acid (4-difluoromethyl-thiazol-2-yl)-amide]",39
15,"Cc1cc(-c2cncc(F)c2)cc(C(=O)Nc2cccc(Cl)c2)n1 [Example 177, 5-Fluoro-6′-methyl-[3,4′]bipyridinyl-2′-carboxylic acid (3-chloro-phenyl)-amide]",111
16,"Cc1cc(-c2cncc(F)c2)cc(C(=O)Nc2ccccc2)n1 [Example 180, 5-Fluoro-6′-methyl-[3,4′]bipyridinyl-2′-carboxylic acid phenylamide]",364

# Same assay, conditions: competition with [3H]MPEP (2 nM), 1 h at 4° C., EBNA cell membranes, head prints no unit
row,Compound,Ki [nM]
1,"Cc1cc(-c2cncc(F)c2)cc(C(=O)Nc2nc(C)cs2)n1 [Example 19, 5-Fluoro-6′-methyl-[3,4′]bipyridinyl-2′-carboxylic acid (4-methyl-thiazol-2-yl)-amide]",25
2,"Cc1cc(-c2cc(Cl)cc(Cl)c2)cc(C(=O)Nc2csc(C)n2)n1 [Example 20, 4-(3,5-Dichloro-phenyl)-6-methyl-pyridine-2-carboxylic acid (2-methyl-thiazol-4-yl)-amide]",6
